# Source: patent EP3546478A1, “NEW PEPTIDE DERIVATIVES OF PLATELET DERIVED GROWTH FACTOR (PDGF), A METHOD FOR THEIR PREPARATION, PHARMACEUTICAL COMPOSITIONS CONTAINING THEM AND APPLICATION OF THESE COMPOSITIONS” (Uniwersytet Gdanski, priority 2018, dated 2019)
# Positions of bridges follow the written chain, without caps; N, C: chain ends. Residues, ends and D or L forms follow the SMILES beside them. Chains are numbered I, II in the order given. No end group written: not given here.
# Assays:
# primary skin fibroblasts = test: XTT proliferation test; assay type: cell-based, human
# Experimental: (§1) The effect of PDGF derivatives (PDGF1, […]1, PDGF2, PGDF3, PDGF2_NE, PDGF2-HTT) on the proliferation of immortalized human 46BR.1N skin fibroblast cells, HaCaT skin keratinocytes (for each peptide 4 experimental cycles for HaCaT and 46BR.1N cells) and primary skin fibroblasts (for each peptide 4 experimental cycles, usingcells isolated from 4 patients) was investigated. Their cytotoxicity to these cells was also checked. The cells were incubated with peptides previously dissolved in double-distilled, sterile water. Proliferation tests (XTT test) were performed at the following concentrations: 0.01, 0.1, 1, 10, 25, 50, 100 and 150 μg / ml. Cytotoxicity tests (LDH) were performed at concentrations of 50, 100 and 150 μg / ml.
# [1] = system: human primary dermal fibroblasts; test: Chemotaxis through culture inserts, calcein fluorometry; assay type: cell-based; details: 1 µg / ml, 24 hours of incubation
# Experimental: The effect of the compound PDGF2 compound at a concentration of 1 µg / ml on the chemotaxis of HaCaT keratinocytes, and the effect of PDGF2 and PDGF3 at a concentration of 1 µg / ml on the chemotaxis of primary fibroblasts, were investigated. Cells were "starved" in serum-free medium for 24 hours before the experiment. They were then seeded in serum-free medium in culture inserts (Grainer bio one, 8 µm) placed in a 24-well plate. Serum-free medium containing PDGF2 or PDGF3 was added to the wells. Controls in the test were: serum free medium and medium containing 10% FBS. After 24 hours of incubation, the cells were stained with calcein. Cells that migrated through the insert membrane were then detached with trypsin and a fluorometric measurement was performed (excitation wavelength 485, emission wavelength 520 nm).
# HaCaT keratinocytes = assay type: cell-based, human
# Experimental: as §1
# 46BR.1N fibroblasts = assay type: cell-based, human; details: 0.1, 1 and 10 µg / ml after 48h and 72h
# Experimental: as §1
# dendritic cells = assay type: cell-based, human
# Experimental: Tests were conducted on human peripheral blood mononuclear cells (PBMC), isolated from "buffy coats" using a ficoll density gradient (histopaque, Sigma). Following two wash steps (in PBS), erythrocyte lysis and cell counting (cell counter, Bio-Rad), the PBMCs were seeded onto a 24-well culture plate at a density of 1 mln cells/1 ml of RPMI 1640 (P/S, 10% FBS)/well. Thecells were then allowed to adapt to the culture conditions for the next 24h. After cell resting, PDGF2 was added to the wells in a final concentration of 1.0 µg/ml, and the cells were incubated for the next 48h under appropriate conditions (37°C, 5% CO2). The untreated cells constituted a negative control, whereas cells stimulated with LPS (1 µg/ml) and PHA (2,5 µg/ml) were a positive control. After incubation, the PBMCs were collected, washed with PBS, counted and prepared for flow cytometry analysis under the following conditions: 10^4 cells/ 100µl were stained with monoclonal, fluorochrome-stained antibodies (anti-CD3, CD4, CD8, CD16, CD56, CD25, CD69, CD71, HLA-DR, CD11c, CD80, CD83). Following 30 min of incubation at RT in the dark, the cells were analyzed using a flow cytometer (LSRFortessa, BD).
# An analysis of peptide impact on the activity of immune cells was performed on human PBMCs. These cells were incubated with PDGF2 (1.0 ug/ml) for 48h and the effects of stimulation were evaluated by flow cytometry. […]
# [2] = XTT test, 0.01 to 150 µg / ml tested, result in words
"activation of dendritic cells (CD80, CD83) (dendritic cells)",Compound,"increase in proliferation relative to control (primary skin fibroblasts; 1, 10, 25 and 50 µg / ml after 48h and 72h)",inhibition of proliferation (primary skin fibroblasts; [2]),effect on chemotaxis [1],"increase in proliferation relative to control (HaCaT keratinocytes; 0.1, 1, 10 and 25 µg / ml after 48h, 0.1, 1, 10, 25, 50, 100 and 150 µg / ml after 72h)",inhibition of proliferation (HaCaT keratinocytes; [2]),increase in proliferation relative to control (46BR.1N fibroblasts)
–,CC[C@H](C)[C@H](NC(=O)[C@H](CC(C)C)NC(=O)[C@@H](N)CCCNC(=N)N)C(=O)N[C@@H](CC(=O)O)C(=O)N[C@@H](CCCNC(=N)N)C(=O)N[C@H](C(=O)N[C@@H](CC(N)=O)C(=O)N[C@@H](C)C(=O)N[C@@H](CC(N)=O)C(=O)N[C@@H](Cc1ccccc1)C(=O)N[C@@H](CC(C)C)C(=O)NCCCC[C@H](NC(=O)[C@H](CCCNC(=N)N)NC(C)=O)C(=O)N[C@H](C(=O)N[C@@H](CCC(=O)O)C(=O)N[C@H](C(=O)N[C@H](C(=O)N[C@@H](CCCNC(=N)N)C(=O)N[C@@H](CCCCN)C(=O)N[C@@H](CCCCN)C(=O)N1CCC[C@H]1C(=O)N[C@H](C(=O)N[C@@H](Cc1ccccc1)C(N)=O)[C@@H](C)CC)C(C)C)[C@@H](C)CC)[C@@H](C)CC)[C@@H](C)O [PDGF3] (I: Ac-RKIEIVRKKPIF-NH2 / II: H-RLIDRTNANFL; amide I:2-II:C),10-60%,does not inhibit the proliferation,inhibit the chemotaxis,20-120%,does not inhibit the proliferation,20-40%
not activated,"RLIDRTNANFL-NH2 [PDGF2, R^1L^2I^3D^4R^5T^6N^7A^8N^9F^10L^11-NH2]",–,–,–,–,–,–
